Laboratory results published in US11000033B2, “Ketone or oxime compound, and herbicide” (NISSAN CHEMICAL CORPORATION, priority 2014, dated 2021).

Tests used:
Format in all cases: in vivo
[1] = test system: Scirpus juncoides; test: Test Example 1: herbicidal activity, application before weed generation in submerged conditions (symbol B); conditions: application herbicide amount 320 g/ha
Outline: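 Steps: alluvial soil flooded to 4 cm; weed seeds sown together; rice seedlings (2.5 leaf) transplanted; diluted emulsion applied to water surface the same day as sowing; plants grown at 25–30 °C in greenhouse; herbicidal effect rated on a 0–5 scale at 3 weeks.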

[2] = test system: Echinochloa oryzacola Vasing.; test: Test Example 2: herbicidal activity, application during weed generation in submerged conditions (symbol A); conditions: Table 23; application herbicide amount 320 g/ha; grade 0-5 by criteria of Test Example 1
Outline: (§1)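 Submerged alluvial soil (4 cm) sown with mixed seed; greenhouse 25–30° C. 1–2 leaf: diluted emulsion onto water surface, preset dose. Visual score, 3 wk.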

[3] = test system: Scirpus juncoides; test: Test Example 2: herbicidal activity, application during weed generation in submerged conditions (symbol B); conditions: Table 23; application herbicide amount 320 g/ha; grade 0-5 by criteria of Test Example 1
Outline: as §1

[4] = test system: Echinochloa crus-galli var. crus-galli; test: Test Example 3: herbicidal effect by foliage application, Wagner pot (symbol H); conditions: application herbicide amount 320 g/ha; for H (Echinochloa crus-galli var. crus-galli) herbicidal effect grade: Table 24
Outline: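 Steps: fill pot with alluvial soil; add water to 0.1–0.5 cm depth; sow weed and rice seed; grow 14 days at 25–30 °C; spray diluted emulsion over the leaves; rate effect after 3 weeks.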

[5] = test system: Avena fatua; test: Test Example 4: herbicidal effect by soil treatment (symbol I); conditions: for I: Avena fatua, herbicidal effect grade: 320 g/ha; for Herbicidal effect grade, I: Avena fatua: application herbicide amount 320 g/ha
Outline: (§2)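 Seeds were sown in sterilized diluvial soil, covered with about 1.5 cm of soil, and the soil surface was sprayed with a water-diluted emulsion of the compound at a predetermined rate. Plants grew in a greenhouse at 25° C. to 30° C.; effects were scored visually 3 weeks after application.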

[6] = test system: Chenopodium album; test: Test Example 4: herbicidal effect by soil treatment (symbol O); conditions: for O: Chenopodium album, herbicidal effect grade: 320 g/ha; for Herbicidal effect grade, O: Chenopodium album: application herbicide amount 320 g/ha
Outline: as §2

[7] = test system: Stellaria media; test: Test Example 4: herbicidal effect by soil treatment (symbol P); conditions: for P: Stellaria media, herbicidal effect grade: 320 g/ha; for Herbicidal effect grade, P: Stellaria media: application herbicide amount 320 g/ha
Outline: as §2

[8] = test system: beet; test: Test Example 4: effect on crop by soil treatment (symbol f); conditions: for f: beet, effect grade on crop: 320 g/ha; for Effect on crop grade, f: beet: application herbicide amount 320 g/ha
Outline: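 Crop seed is sown in spots together with several weed species in a box of sterilized diluvial soil. It is covered by about 1.5 cm of soil and kept in a greenhouse held between 25° C. and 30° C.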

[9] = test system: Digitaria ciliaris; test: Test Example 5: herbicidal effect by foliage application, plastic box (symbol F); conditions: 320 g/ha, 3 weeks after application
Outline: (§3)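 Leaf-applied emulsion, water-diluted to a preset herbicide dose, on two-week-old seedlings raised in a 25° C. to 30° C. greenhouse; injury rated at 3 weeks using earlier criteria.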

[10] = test system: Chenopodium album; test: Test Example 5: herbicidal effect by foliage application, plastic box (symbol O); conditions: 320 g/ha, 3 weeks after application
Outline: as §3

[11] = test system: rice plant; test: Test Example 5: effect on crop by foliage application, plastic box (symbol b); conditions: 320 g/ha, 3 weeks after application
Outline: (§4)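 In a plastic box 7 cm deep filled with sterilized diluvial soil, seeds of crops and weeds such as Digitaria ciliaris, Avena fatua and Amaranthus retroflexus are sown in spots and covered with about 1.5 cm of soil before greenhouse growth at 25–30° C.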

[12] = test system: rapeseed; test: Test Example 5: effect on crop by foliage application, plastic box (symbol g); conditions: 320 g/ha, 3 weeks after application
Outline: as §4

## CON=C(C)CC1CC(OS(=O)(=O)N(C)C)=C(c2c(C)cc(C)cc2C)C1=O (stereo not drawn) [1-122]
[1]
  Herbicidal effect grade, B: Scirpus juncoides: 5 (Herbicidal ratio of 90% or more (almost completely withered))
[2]
  Herbicidal effect grade, A: Echinochloa oryzacola Vasing.: 5 (Herbicidal ratio of 90% or more (almost completely withered))
[3]
  Herbicidal effect grade, B: Scirpus juncoides: 5 (Herbicidal ratio of 90% or more (almost completely withered))
[4]
  herbicidal effect on H (Echinochloa crus-galli var. crus-galli), grade 0-5: 5 (Herbicidal ratio of 90% or more (almost completely withered))
[5]
  I: Avena fatua, herbicidal effect grade: 2 (Herbicidal ratio of 20% or higher and lower than 40%)
[6]
  O: Chenopodium album, herbicidal effect grade: 0 (Herbicidal ratio of 5% or lower (almost no effect))
[7]
  P: Stellaria media, herbicidal effect grade: 0 (Herbicidal ratio of 5% or lower (almost no effect))
[8]
  f: beet, effect grade on crop: 0 (Herbicidal ratio of 5% or lower (almost no effect))
[9]
  F: Digitaria ciliaris, herbicidal effect (criteria 0-5): 4 (Herbicidal ratio of 70% or higher and lower than 90%)
[10]
  O: Chenopodium album, herbicidal effect (criteria 0-5): 0 (Herbicidal ratio of 5% or lower (almost no effect))
[11]
  b: directly sowed rice plant, effect on crop (criteria 0-5): 5 (Herbicidal ratio of 90% or more (almost completely withered))
[12]
  g: rapeseed, effect on crop (criteria 0-5): 5 (Herbicidal ratio of 90% or more (almost completely withered))

## CC(CC1CC(O)=C(c2c(C)cc(C)cc2C)C1=O)=NOCC(C)Br (stereo not drawn) [1-135]
[1]
  Herbicidal effect grade, B: Scirpus juncoides: 5 (Herbicidal ratio of 90% or more (almost completely withered))
[2]
  Herbicidal effect grade, A: Echinochloa oryzacola Vasing.: 5 (Herbicidal ratio of 90% or more (almost completely withered))
[3]
  Herbicidal effect grade, B: Scirpus juncoides: 4 (Herbicidal ratio of 70% or higher and lower than 90%)
[4]
  herbicidal effect on H (Echinochloa crus-galli var. crus-galli), grade 0-5: 5 (Herbicidal ratio of 90% or more (almost completely withered))
[5]
  I: Avena fatua, herbicidal effect grade: 3 (Herbicidal ratio of 40% or higher and lower than 70%)
[6]
  O: Chenopodium album, herbicidal effect grade: 0 (Herbicidal ratio of 5% or lower (almost no effect))
[7]
  P: Stellaria media, herbicidal effect grade: 0 (Herbicidal ratio of 5% or lower (almost no effect))
[8]
  f: beet, effect grade on crop: 0 (Herbicidal ratio of 5% or lower (almost no effect))
[9]
  F: Digitaria ciliaris, herbicidal effect (criteria 0-5): 5 (Herbicidal ratio of 90% or more (almost completely withered))
[10]
  O: Chenopodium album, herbicidal effect (criteria 0-5): 5 (Herbicidal ratio of 90% or more (almost completely withered))
[11]
  b: directly sowed rice plant, effect on crop (criteria 0-5): 5 (Herbicidal ratio of 90% or more (almost completely withered))
[12]
  g: rapeseed, effect on crop (criteria 0-5): 4 (Herbicidal ratio of 70% or higher and lower than 90%)

## CC#Cc1cc(C)c(C2=C(O)CC(CC(=NOCC(F)(F)F)C(C)C)C2=O)c(C)c1 (stereo not drawn) [9-015]
[1]
  B (Scirpus juncoides) herbicidal effect grade: 5 (Herbicidal ratio of 90% or more (almost completely withered))
[2]
  Herbicidal effect grade, A: Echinochloa oryzacola Vasing.: 5 (Herbicidal ratio of 90% or more (almost completely withered))
[3]
  Herbicidal effect grade, B: Scirpus juncoides: 3 (Herbicidal ratio of 40% or higher and lower than 70%)
[4]
  H (Echinochloa crus-galli var. crus-galli) herbicidal effect grade: 5 (Herbicidal ratio of 90% or more (almost completely withered))
[5]
  Herbicidal effect grade, I: Avena fatua: 1 (Herbicidal ratio of 5% or higher and lower than 20%)
[6]
  Herbicidal effect grade, O: Chenopodium album: 0 (Herbicidal ratio of 5% or lower (almost no effect))
[7]
  Herbicidal effect grade, P: Stellaria media: 0 (Herbicidal ratio of 5% or lower (almost no effect))
[8]
  Effect on crop grade, f: beet: 0 (Herbicidal ratio of 5% or lower (almost no effect))
[9]
  F: Digitaria ciliaris, herbicidal effect grade: 5 (Herbicidal ratio of 90% or more (almost completely withered))
[10]
  O: Chenopodium album, herbicidal effect grade: 3 (Herbicidal ratio of 40% or higher and lower than 70%)
[11]
  b: directly sowed rice plant, effect on crop grade: 5 (Herbicidal ratio of 90% or more (almost completely withered))
[12]
  g: rapeseed, effect on crop grade: 5 (Herbicidal ratio of 90% or more (almost completely withered))

## CC(CC1CC(O)=C(c2c(C)cc(C)cc2C)C1=O)=NOC1CCCC1 (stereo not drawn) [1-106]
[1]
  Herbicidal effect grade, B: Scirpus juncoides: 3 (Herbicidal ratio of 40% or higher and lower than 70%)
[2]
  Herbicidal effect grade, A: Echinochloa oryzacola Vasing.: 5 (Herbicidal ratio of 90% or more (almost completely withered))
[3]
  Herbicidal effect grade, B: Scirpus juncoides: 0 (Herbicidal ratio of 5% or lower (almost no effect))
[4]
  herbicidal effect on H (Echinochloa crus-galli var. crus-galli), grade 0-5: 5 (Herbicidal ratio of 90% or more (almost completely withered))
[5]
  I: Avena fatua, herbicidal effect grade: 3 (Herbicidal ratio of 40% or higher and lower than 70%)
[6]
  O: Chenopodium album, herbicidal effect grade: 0 (Herbicidal ratio of 5% or lower (almost no effect))
[7]
  P: Stellaria media, herbicidal effect grade: 0 (Herbicidal ratio of 5% or lower (almost no effect))
[8]
  f: beet, effect grade on crop: 0 (Herbicidal ratio of 5% or lower (almost no effect))
[9]
  F: Digitaria ciliaris, herbicidal effect (criteria 0-5): 5 (Herbicidal ratio of 90% or more (almost completely withered))
[10]
  O: Chenopodium album, herbicidal effect (criteria 0-5): 2 (Herbicidal ratio of 20% or higher and lower than 40%)
[11]
  b: directly sowed rice plant, effect on crop (criteria 0-5): 5 (Herbicidal ratio of 90% or more (almost completely withered))
[12]
  g: rapeseed, effect on crop (criteria 0-5): 3 (Herbicidal ratio of 40% or higher and lower than 70%)

## CC(CC1CC(O)=C(c2c(C)cc(C)cc2C)C1=O)=NOCc1ccc(F)cc1 (stereo not drawn) [1-136]
[1]
  Herbicidal effect grade, B: Scirpus juncoides: 5 (Herbicidal ratio of 90% or more (almost completely withered))
[2]
  Herbicidal effect grade, A: Echinochloa oryzacola Vasing.: 4 (Herbicidal ratio of 70% or higher and lower than 90%)
[3]
  Herbicidal effect grade, B: Scirpus juncoides: 4 (Herbicidal ratio of 70% or higher and lower than 90%)
[4]
  herbicidal effect on H (Echinochloa crus-galli var. crus-galli), grade 0-5: 5 (Herbicidal ratio of 90% or more (almost completely withered))
[5]
  I: Avena fatua, herbicidal effect grade: 3 (Herbicidal ratio of 40% or higher and lower than 70%)
[6]
  O: Chenopodium album, herbicidal effect grade: 0 (Herbicidal ratio of 5% or lower (almost no effect))
[7]
  P: Stellaria media, herbicidal effect grade: 0 (Herbicidal ratio of 5% or lower (almost no effect))
[8]
  f: beet, effect grade on crop: 0 (Herbicidal ratio of 5% or lower (almost no effect))
[9]
  F: Digitaria ciliaris, herbicidal effect (criteria 0-5): 5 (Herbicidal ratio of 90% or more (almost completely withered))
[10]
  O: Chenopodium album, herbicidal effect (criteria 0-5): 0 (Herbicidal ratio of 5% or lower (almost no effect))
[11]
  b: directly sowed rice plant, effect on crop (criteria 0-5): 5 (Herbicidal ratio of 90% or more (almost completely withered))
[12]
  g: rapeseed, effect on crop (criteria 0-5): 4 (Herbicidal ratio of 70% or higher and lower than 90%)

## CC(CC1CC(O)=C(c2c(C)cc(-n3cc(Cl)cn3)cc2C)C1=O)=NOCC(F)(F)F (stereo not drawn) [9-010]
[1]
  B (Scirpus juncoides) herbicidal effect grade: 5 (Herbicidal ratio of 90% or more (almost completely withered))
[2]
  Herbicidal effect grade, A: Echinochloa oryzacola Vasing.: 4 (Herbicidal ratio of 70% or higher and lower than 90%)
[3]
  Herbicidal effect grade, B: Scirpus juncoides: 4 (Herbicidal ratio of 70% or higher and lower than 90%)
[4]
  H (Echinochloa crus-galli var. crus-galli) herbicidal effect grade: 5 (Herbicidal ratio of 90% or more (almost completely withered))
[5]
  Herbicidal effect grade, I: Avena fatua: 4 (Herbicidal ratio of 70% or higher and lower than 90%)
[6]
  Herbicidal effect grade, O: Chenopodium album: 0 (Herbicidal ratio of 5% or lower (almost no effect))
[7]
  Herbicidal effect grade, P: Stellaria media: 0 (Herbicidal ratio of 5% or lower (almost no effect))
[8]
  Effect on crop grade, f: beet: 0 (Herbicidal ratio of 5% or lower (almost no effect))
[9]
  F: Digitaria ciliaris, herbicidal effect grade: 5 (Herbicidal ratio of 90% or more (almost completely withered))
[10]
  O: Chenopodium album, herbicidal effect grade: 3 (Herbicidal ratio of 40% or higher and lower than 70%)
[11]
  b: directly sowed rice plant, effect on crop grade: 5 (Herbicidal ratio of 90% or more (almost completely withered))
[12]
  g: rapeseed, effect on crop grade: 3 (Herbicidal ratio of 40% or higher and lower than 70%)
